In publication PMC12256496, “An advancement in developmental and reproductive toxicity (DART) risk assessment: evaluation of a bioactivity and exposure-based NAM toolbox” (Frontiers in Toxicology, 2025):
Converted amounts (≈) assume the structure as drawn. Where two headings read alike, the source gives them in different places. Blank lines part the entries; values can stand above or below the compound they belong to. Peptide text beside a SMILES is read from it.

Assays:
[1] = set-up: method as in earlier work; settings: ref [3]; cited from earlier work
[2] = tested on: human developmental and reproductive toxicity; settings: ref Supplementary Data Sheet 1, cited from earlier work
[3] = tested on: developmental or reproductive toxicity in animal or human; settings: evidence of developmental or reproductive toxicity in animal or human, irrespective of exposure/dose; ref Supplementary Data Sheet 1; cited from earlier work
[4] = cited from earlier work
[5] = cited from earlier work; remark: listed apart in the source
[6] = cited from earlier work; for MoS: existent consumer risk assessment for the cosmetic use scenario, ref SCCS / SCCP / SCCNFP
[7] = ref Supplementary Data Sheet 1, cited from earlier work
[8] = renal clearance, Fup*GFR (PBK parameter); settings: method Fup*GFR
[9] = hepatic intrinsic clearance, CLint (PBK parameter); type: in vitro ADME
[10] = ref PubChem; cited from earlier work
[11] = tested on: rats; settings: ref Supplementary Data Sheet 1, cited from earlier work
[12] = tested on: thyroid peroxidase (TPO); assay: IPP: thyroid peroxidase (TPO) binding; settings: low-risk exposure scenario
From the text: (§1) In vitro pharmacological profiling is used to measure specific and high affinity non-covalent binding interactions between chemicals of interest and various targets with known safety liabilities. These targets include G protein coupled receptors (GPCRs), nuclear hormone receptors (NHRs), ion channels and enzymes. For this evaluation we included 72 targets of interest a full list of which is available in Supplementary Data Sheet 5, across a range of radioligand binding, enzymatic and protein-protein interaction assays run in binding mode only.
(§2) The process for deriving a PoD for each of the 72 targets consisted of a two-step method that has been widely adopted when conducting in vitro pharmacological profiling experiments ([Brennan et al., 2024]). […] Targets showing an inhibition or stimulation greater than 50% of a maximal response produced by a reference compound are followed up in a second phase which includes an eight-point concentration response (in two replicates). […] EC50 values (concentration producing a half-maximal response) and IC50 values (concentration causing a half-maximal inhibition of the control agonist response) were determined by the Bayesian probabilistic model of the concentration-response curves and the Hill equation as per ([Labelle et al., 2019]). […] Calculated IC50s were taken forwards as the IPP PoDs ([Middleton et al., 2022]). […]

[13] = Human in vivo PK data: concentration-dose ratio (CDR) and toxicokinetic variability factor (TKVF);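 also: Literature-pooled human in vivo PK data, plasma, serum or cord blood concentrations per daily dose, weighted by study population size across non-pregnant, pregnant and fetal groups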
[14] = water solubility (PBK parameter); type: physicochemical; settings: Solubility pH 6.99, optimised based on [13], read-out: Aqueous Solubility
[15] = unbound fraction in plasma, fup (PBK parameter); type: in vitro ADME; settings: optimised based on [13]
[16] = tested on: serotonin receptor HTR2B; assay: IPP: serotonin receptor HTR2B binding; settings: low-risk exposure scenario
From the text: as §1, §2

[17] = human
[18] = tested on: rabbits; set-up: method as in Supplementary Data Sheet 1; settings: rabbits; ref Supplementary Data Sheet 1; cited from earlier work
[19] = tested on: mice; set-up: method as in Supplementary Data Sheet 1; settings: ref Supplementary Data Sheet 1, cited from earlier work
[20] = tested on: hamsters; set-up: method as in Supplementary Data Sheet 1; settings: ref Supplementary Data Sheet 1; cited from earlier work
[21] = tested on: pigtail monkeys; set-up: method as in Supplementary Data Sheet 1; settings: the only dose tested, ref Supplementary Data Sheet 1; cited from earlier work
[22] = Bioactivity exposure ratio (BER): minimum platform PoD / estimated Cmax; settings: low-risk scenario of normal dietary exposure to retinol and its metabolite

Compound: Nc1cc([N+](=O)[O-])cc(Cl)c1O [2-Amino-6-chloro-4-nitrophenol]
Peff [1]: 7.96 cm/s x E-04 | Exposure risk (DART risk classification) ([2]; Cosmetic, 2% in hair colourant, dermal): Low Risk | DART Hazard Call [3]: Non Toxic | Aqueous Solubility ([4]; Solubility pH 5.04, ref [1]): 450 mg/mL | Fup ([5]; ref [2]): 0.47% | MoS [6]: Used safely in cosmetic products. Existent consumer risk assessment from the SCCP. MoS >400. | NOAEL for maternal toxicity [7]: 30 mg/kg bw | Renal Clearance [8]: 0.034 L/h

Compound: CCCCC(CC)C(=O)O (stereo not shown) [2-Ethylhexanoic acid (2-EHA), 2-Ethylhexanoic acid]
Intrinsic Liver Clearance ([9]; optimised based on [16]): 7.128 L/h | pKa Value ACID [10]: 4.8 | developmental NOAEL ([11]; 2 rat studies, clubfoot/reduced skeletal ossification): 100 mg/kg bw/day | NOAEL for parental effects ([11]; EOGRT in rats): 250 mg/kg bw/d | Renal Clearance [8]: 0.008 L/h

Compound: Cc1c(O)cccc1O [2-Methylresorcinol]
BER from thyroid peroxidase (TPO) binding [12]: < 1 | Exposure risk (DART risk classification) ([2]; Cosmetic, […] in hair colourant, dermal): Low Risk | DART Hazard Call [3]: Non Toxic | Aqueous Solubility ([4]; Solubility pH 4.91, ref [7]): 263 mg/mL | MoS [6]: Used safely in cosmetic products. Existent consumer risk assessment from the SCCS. MoS >4000. | Renal Clearance [8]: 4.792 L/h

Compound: COC(=O)[C@H](Cc1ccccc1)NC(=O)[C@@H](N)CC(=O)O [Aspartame] (H-Asp-Phe-OMe)
Intrinsic Liver Clearance ([9]; scaled from [6]): 400.2 L/h | Exposure risk (DART risk classification) ([2]; Dietary, 2,400 mg/daily, oral): Low Risk | Aqueous Solubility ([4]; Solubility pH 2.2, ref [4]): 20 mg/mL | Fup ([5]; ref [6]): 83.8% | ADI ([6]; ref FSCJ, EFSA, SCF, JMPR as named in the cell): ADI set by EFSA (40 mg/kg/day) | Renal Clearance [8]: 6.049 L/h

Compound: Cc1cc(C(C)(C)C)c(O)c(C(C)(C)C)c1 [Butylated hydroxytoluene (BHT), Butylated hydroxytoluene]
TKVF ([13]; Non-Pregnant, oral): 2.5 | solubility [14]: 0.005 mg/mL (≈ 22.7 µM) | Fup [15]: 0.33% | Intrinsic Liver Clearance ([9]; optimised based on [13]): 22540.4 L/h | MoS [6]: Used safely in cosmetic products. Existent consumer risk assessment from the SCCS. MoS >3000. | offspring NOAEL ([7]; OECD 416, effects on litter size, sex ratio and pup body weight gain): OECD 416: 0, ~25, ~100 and ~280 mg/kg/day. Effects on offspring. Offspring NOAEL of 25 mg/kg bw/day based on effects on litter size, sex ratio and pup body weight gain. | Renal Clearance [8]: 0.02382 L/h

Compound: CCOC(=O)c1ccccc1C(=O)OCC [Diethyl phthalate (DEP), Diethyl phthalate]
BER from binding to the serotonin receptor HTR2B [16]: < 1 | MoS [6]: Used safely in cosmetic products. Existent safety assessment from the SCCNFP. MoS 161

Compound: CCOC(=O)c1ccccc1C(=O)OCC [Diethyl phthalate]
Intrinsic Liver Clearance [9]: 596.6 L/h | Renal Clearance [17]: 1.371 L/h | Fup ([5]; ref [19]): 19%

Compound: CN(C)C(=N)N=C(N)N [Metformin]
CDR fold difference to non-pregnant ([13]; female, human, in vivo): 0.73 | CDR fold difference to pregnant ([13]; female, human, in vivo): 1.00 | TKVF ([13]; female, human, in vivo): 2.75 | 95% percentile (Conc-dose-ratio) ([13]; female, human, in vivo, po): 0.0213 | Fold Difference to non-pregnant ([13]; female, human, in vivo, po): 0.73 | Fold Difference to pregnant ([13]; female, human, in vivo, po): 1.00 | Mean Conc-dose -ratio ([13]; female, human, in vivo, po): 0.008 uM/(mg/day] | TKVF ([13]; female, human, in vivo, po): 2.75 | CDR fold difference to pregnant ([13]; human, in vivo): 0.56 | Fold Difference to pregnant ([13]; human, in vivo, po): 0.56 | highest dose not teratogenic [18]: 600 mg/kg/day | Exposure risk (DART risk classification) ([2]; Pharmaceutical, 2,000 mg/daily, oral): Low Risk | DART Hazard Call [3]: Non Toxic | highest dose not teratogenic ([11]; rats): 600 mg/kg/day

Compound: O=C1CN(/N=C/c2ccc([N+](=O)[O-])o2)C(=O)N1 [Nitrofurantoin]
CDR fold difference to non-pregnant ([13]; female, human, in vivo): 1.29 | CDR fold difference to pregnant ([13]; female, human, in vivo): 1.00 | TKVF ([13]; female, human, in vivo): 5.73 | CDR fold difference to pregnant ([13]; human, in vivo): 1.74 | 95% percentile (Conc-dose-ratio) ([13]; human, in vivo, po): 0.11 | Fold Difference to non-pregnant ([13]; human, in vivo, po): 1.00 | Mean Conc-dose -ratio ([13]; human, in vivo, po): 0.033 uM/(mg/day] | TKVF ([13]; human, in vivo, po): 3.36 | multiple of human dose with growth retardation and low incidence of minor and common malformations ([19]; based on mg/kg administered to the dam): 68 times | multiple of human dose at which fetal malformations were not observed [19]: 25 times | Exposure risk (DART risk classification) ([2]; Pharmaceutical, 200 mg/daily, oral): High Risk | DART Hazard Call [3]: Uncertain

BER [22]: < 1
Compound: CC1=C(/C=C/C(C)=C/C=C/C(C)=C/C(=O)O)C(C)(C)CCC1 [all-trans-retinoic acid (ATRA), all-trans-retinoic acid]
CDR fold difference to non-pregnant ([13]; female, human, in vivo): 0.77 | CDR fold difference to pregnant ([13]; female, human, in vivo): 1.00 | TKVF ([13]; female, human, in vivo): 1.47 | CDR fold difference to pregnant ([13]; human, in vivo): 0.71 | dose above which gross external, soft tissue and skeletal alterations occurred [19]: > 0.7 mg/kg/day | dose above which gross external, soft tissue and skeletal alterations occurred [20]: > 7 mg/kg/day | dose at which gross external, soft tissue and skeletal alterations occurred [21]: 10 mg/kg/day | Exposure risk (DART risk classification) ([2]; Dietary, <10,000 IU Retinol, oral): Low Risk | Exposure risk (DART risk classification) ([2]; Pharmaceutical, 80 mg/daily, oral): High Risk | Exposure risk (DART risk classification) ([2]; Pharmaceutical, 0.1% cream, dermal): Uncertain Risk | DART Hazard Call [3]: Toxic | dose above which gross external, soft tissue and skeletal alterations occurred ([11]; rats): > 2 mg/kg/day
